Data: US9556228B2 (Universitaet Leipzig, priority 2011, dated 2017)
≈ marks a conversion by molar mass, not a printed value. Peptide text beside a SMILES is read from it.

What was measured:
Escherichia coli UB 1005 = experiment: Minimum inhibitory concentration (MIC), broth microdilution; type: cell-based; settings: for MIC E. coli UB1005: 1/8 MHB, Table 4; for Improvement over Native Sequence (SEQ No. 2) E. coli UB1005: fold, from MIC in 1/8 MHB
Method: (§1) The minimum inhibitory concentrations (MIC) of the peptides were determined in a double assay of triplicates using a positive control sample (gentamycin) and a negative control sample (0.9% NaCl solution), according to a modified protocol from Wiegand et al. (Wiegand, 2008).
(§2) For this purpose, the peptides were dissolved in water and were diluted in a double dilution series with 1/8 MH (eight-fold diluted Mueller-Hinton-Medium—2.6 g/L, Merck) in sterile 96-well, plates (Greiner Bio-One GmbH) in twelve dilution steps from 128 μg/mL to 62.5 ng/mL. Overnight cultures were adjusted using ⅛ MHB to approximately 1.5×10^7 colony forming units per mL. Of these, 50 μL of peptide solution per well was mixed with 50 μL bacteria solution each to obtain an initial concentration of […] bacteria per well. After 20 hours of incubation at 37′C, the absorption was determined at 595 nm (microplate reader, Wallac Victor3, Perkin Elmer). The minimum inhibitory concentration was identified as the lowest peptide concentration at which no bacterial growth could be detected.
(§3) In the experiment, the antibacterial activity of the peptides according to the invention in relation to the following bacterial strains was analyzed: Pseudomonas aeruginosa PAO1 (wt strain), Pseudomonas aeruginosa DSM 9644, Staphylococcus aureus DSM 1104/ATCC 25923, Staphylococcus aureus ATCC 6247, Escherichia coli UB 1005 (F—, nalA37, metB1) and Escherichia coli ATCC25922.

S. aureus DSM 6247 = type: cell-based, Staphylococcus aureus
Method: as §1, §2, §3

[1] = tested on: Pseudomonas aeruginosa PAO1 (wt strain); type: cell-based; settings: for Improvement over Native Sequence (SEQ No. 2) P. aeruginosa PAO1 wt: fold, from MIC in 1/8 MHB
Method: as §1, §2, §3

[2] = tested on: Staphylococcus aureus DSM 1104/ATCC 25923; type: cell-based; settings: for MIC S. aureus ATCC 25923 / MIC S. aureus DSM 1104/ATCC 25923: DSM 1104; for Improvement over Native Sequence (SEQ No. 2) S. aureus ATCC 25923: fold, from MIC in 1/8 MHB
Method: as §1, §2, §3

[3] = tested on: Pseudomonas aeruginosa DSM 9644; type: cell-based
Method: as §1
[…] Overnight cultures were adjusted using ⅛ MHB to approximately 1.5×10^7 colony forming units per mL. Of these, 50 μL of peptide solution per well was mixed with 50 μL bacteria solution each to obtain an initial concentration of […] bacteria per well. After 20 hours of incubation at 37′C, the absorption was determined at 595 nm (microplate reader, Wallac Victor3, Perkin Elmer). The minimum inhibitory concentration was identified as the lowest peptide concentration at which no bacterial growth could be detected.
as §3

[4] = tested on: Escherichia coli ATCC25922; type: cell-based

| SMILES | MIC E. coli UB1005 (Escherichia coli UB 1005) [µg/mL] | Improvement over Native Sequence (SEQ No. 2) E. coli UB1005 (Escherichia coli UB 1005) | MIC S. aureus DSM 6247 (S. aureus DSM 6247) [µg/mL] | MIC P. aeruginosa PAO1 wt [1] [µg/mL] | Improvement over Native Sequence (SEQ No. 2) P. aeruginosa PAO1 wt [1] | MIC S. aureus ATCC 25923 [2] [µg/mL] | MIC S. aureus DSM 1104/ATCC 25923 [2] [µg/mL] | Improvement over Native Sequence (SEQ No. 2) S. aureus ATCC 25923 [2] | MIC P. aeruginosa PAO DSM 9644 [3] [µg/mL] | MIC E. coli ATCC 25922 [4] [µg/mL] |
| --- | --- | --- | --- | --- | --- | --- | --- | --- | --- | --- |
| CC[C@H](C)[C@H](NC(=O)[C@H](Cc1ccc(O)cc1)NC(=O)[C@@H](NC(=O)[C@@H]1CCCN1C(=O)[C@H](CCCNC(=N)N)NC(=O)[C@H](CC(N)=O)NC(=O)[C@H](CC(N)=O)NC(=O)CN)C(C)C)C(=O)N1CCC[C@H]1C(=O)N[C@@H](CCC(N)=O)C(=O)N1CCC[C@H]1C(=O)N[C@@H](CCCNC(=N)N)C(=O)N1CCC[C@H]1C(=O)N1CCC[C@H]1C(=O)N[C@@H](Cc1c[nH]cn1)C(=O)N1CCC[C@H]1C(=O)N[C@@H](CCCNC(=N)N)C(=O)N[C@@H](CC(C)C)C(=O)O [compound 2] (H-GNNRPVYIPQPRPPHPRL-OH; N-terminus assumed) | 5 (≈ 2.37 µM) | 1 | 256 (≈ 121 µM) | 500 (≈ 237 µM) | 1 | >125 | >125 | 1 | >256 | 2 (≈ 0.949 µM) |
| CC[C@H](C)[C@H](NC(=O)[C@H](Cc1ccc(O)cc1)NC(=O)[C@@H](NC(=O)[C@@H]1CCCN1C(=O)[C@H](CCCNC(=N)N)NC(=O)[C@H](CC(N)=O)NC(=O)[C@H](Cc1c[nH]c2ccccc12)NC(=O)CN)C(C)C)C(=O)N1CCC[C@H]1C(=O)N[C@@H](CCCNC(=N)N)C(=O)N1CCC[C@H]1C(=O)N[C@@H](CCCNC(=N)N)C(=O)N[C@@H](CCCNC(=N)N)C(=O)N1CCC[C@H]1C(=O)N[C@@H](Cc1c[nH]cn1)C(=O)N1CCC[C@H]1C(=O)N[C@@H](CCCNC(=N)N)C(=O)N[C@@H](CC(C)C)C(N)=O [compound 50] (H-GWNRPVYIPRPRRPHPRL-NH2; N-terminus assumed) | 2.5 (≈ 1.1 µM) | 2 | 2 (≈ 0.882 µM) | 32 (≈ 14.1 µM) | 16 | 2 (≈ 0.882 µM) | 2 (≈ 0.882 µM) | 128 | 32 (≈ 14.1 µM) | 8 (≈ 3.53 µM) |
| CC[C@H](C)[C@H](NC(=O)[C@H](Cc1ccc(O)cc1)NC(=O)[C@@H](NC(=O)[C@@H]1CCCN1C(=O)[C@H](CCCNC(=N)N)NC(=O)[C@H](CC(N)=O)NC(=O)[C@H](Cc1c[nH]c2ccccc12)NC(=O)CN)C(C)C)C(=O)N1CCC[C@H]1C(=O)N[C@@H](CCC(N)=O)C(=O)N1CCC[C@H]1C(=O)N[C@@H](CCCNC(=N)N)C(=O)N[C@@H](CCCNC(=N)N)C(=O)N1CCC[C@H]1C(=O)N[C@@H](Cc1c[nH]cn1)C(=O)N1CCC[C@H]1C(=O)N[C@@H](CCCNC(=N)N)C(=O)N[C@@H](CC(C)C)C(N)=O [compound 52] (H-GWNRPVYIPQPRRPHPRL-NH2; N-terminus assumed) | 5 (≈ 2.23 µM) | 1 | 2 (≈ 0.893 µM) | 64 (≈ 28.6 µM) | 8 | 4 to 8 | 4 to 8 | 31-64 | 64 (≈ 28.6 µM) | 16 (≈ 7.15 µM) |
| CC[C@H](C)[C@H](NC(=O)[C@H](Cc1ccc(O)cc1)NC(=O)[C@@H](NC(=O)[C@@H]1CCCN1C(=O)[C@H](CCCNC(=N)N)NC(=O)[C@H](CC(N)=O)NC(=O)[C@H](Cc1c[nH]c2ccccc12)NC(=O)CN)C(C)C)C(=O)N1CCC[C@H]1C(=O)N[C@@H](CCCNC(=N)N)C(=O)N1CCC[C@H]1C(=O)N[C@@H](CCCNC(=N)N)C(=O)N1CCC[C@H]1C(=O)N1CCC[C@H]1C(=O)N[C@@H](Cc1c[nH]cn1)C(=O)N1CCC[C@H]1C(=O)N[C@@H](CCCNC(=N)N)C(=O)N[C@@H](CC(C)C)C(N)=O [compound 63] (H-GWNRPVYIPRPRPPHPRL-NH2; N-terminus assumed) |  | 8 |  | 16 to 32 | 16-32 | 16 (≈ 7.25 µM) |  | 16 |  |  |
| CC[C@H](C)[C@H](NC(=O)[C@H](Cc1ccc(O)cc1)NC(=O)[C@@H](NC(=O)[C@@H]1CCCN1C(=O)[C@H](CCCNC(=N)N)NC(=O)[C@H](CC(N)=O)NC(=O)[C@H](CC(N)=O)NC(=O)CN)C(C)C)C(=O)N1CCC[C@H]1C(=O)N[C@@H](CCC(N)=O)C(=O)N1CCC[C@H]1C(=O)N[C@@H](CCCNC(=N)N)C(=O)N1CCC[C@H]1C(=O)N1CCC[C@H]1C(=O)N[C@@H](Cc1c[nH]cn1)C(=O)N1CCC[C@H]1C(=O)N[C@@H](CCCNC(=N)N)C(=O)N[C@@H](CC(C)C)C(N)=O [compound 90] (H-GNNRPVYIPQPRPPHPRL-NH2; N-terminus assumed) | 1.25 (≈ 0.593 µM) | 4 | 64 (≈ 30.4 µM) | 250 (≈ 119 µM) | 2 | >125 | >125 |  |  | 2 (≈ 0.949 µM) |
| CC[C@H](C)[C@H](NC(=O)[C@H](Cc1ccc(O)cc1)NC(=O)[C@@H](NC(=O)[C@@H]1CCCN1C(=O)[C@H](CC(=O)O)NC(=O)[C@H](CC(N)=O)NC(=O)[C@H](CC(N)=O)NC(=O)CN)C(C)C)C(=O)N1CCC[C@H]1C(=O)N[C@@H](CCC(N)=O)C(=O)N1CCC[C@H]1C(=O)N[C@@H](CCCNC(=N)N)C(=O)N1CCC[C@H]1C(=O)N1CCC[C@H]1C(=O)N[C@@H](Cc1c[nH]cn1)C(=O)N1CCC[C@H]1C(=O)N[C@@H](CCCNC(=N)N)C(=O)N[C@@H](CC(C)C)C(N)=O [compound 91] (H-GNNDPVYIPQPRPPHPRL-NH2; N-terminus assumed) | >19.4 | <0.25 |  | 121.0 (≈ 58.6 µM) | 4 | >60.5 |  |  |  |  |
